Read-outs that look alike come from different tables or passages of the source.
How the values were obtained:
[1] = system: Erysiphe graminis f. sp. tritici; assay: antifungal effect on Erysiphe graminis (powdery mildew on wheat plants, glasshouse); format: in vivo; conditions: Blumeria graminis; for inhibition at 25 µg/mL: 25 μg/ml; for inhibition at 50 µg/mL: 50 μg/ml; for inhibition at 100 µg/mL: 100 μg/ml; for inhibition at 200 µg/mL: 200 μg/ml; for inhibition at 400 µg/mL: 400 μg/ml
Experimental: The compounds of the general Formula (I) are particularly effective against powdery mildew. In Table IV the activity of some compounds of the general […] against Erysiphe graminis f. sp. tritici strain are disclosed.
The following test method is used: Glasshouse conditions: temperature 20° C.; relative humidity 80%; strength of illumination 6000 lux. The test plants MV-9 Automn wheat are cultivated in pots diameter 20 cm in a 1:1 mixture of sand and perlite. The average number of plants per pot amounts to 180, the height of the plants is 6-7 cm. About 8 ml of the aqueous suspension of the test compound is applied onto the plants with the aid of a sprayer.
The rate of infectedness is determined after 8 days. Activity is calculated from the percental inhibition values. As control commercial products Fundazol 50 WP and Karathene LC 50 are used.

[2] = hot (56° C.) plate test on mice (analgesic effect); format: in vivo, male and female CFLP strain mice; conditions: Mus musculus, po, 1 h, read-out: Lengthening of reaction time in %; for change in vivo at 25 mg/kg: 25 mg/kg p.o.; for change in vivo at 50 mg/kg: 50 mg/kg p.o.; for change in vivo at 100 mg/kg: 100 mg/kg p.o.
Experimental: The analgesic effect of the compounds of the present invention is tested according to the hot (56° C.) plate test on male and female CFLP strain mice weighing 18-22 g. The point of time of the appearence of the deterring reaction Abwehrreaktion is determined and related to the latent time measured on the control group Woolfe and McDonald 1944. At least 10 animals are used per dose. […] The test is carried out on separated male Wistar rats weighing 180-210 g and fasted for 16 hours. The test compounds are suspended in 1% carboxy methyl cellulose and administered orally in a dose of 10 ml/kg.

[3] = carrageenin edema inhibition in rats (antiphlogistic effect), Winter method; format: in vivo, male Wistar rats; conditions: Rattus norvegicus, po; for inhibition in vivo at 12.5 mg/kg: 12.5 mg/kg p.o.; for inhibition in vivo at 25 mg/kg: 25 mg/kg p.o.; for inhibition in vivo at 50 mg/kg: 50 mg/kg p.o.; for inhibition in vivo at 100 mg/kg: 100 mg/kg p.o.
Experimental: Thus the orally administered compounds of the general Formula (I) efficiently reduce acute inflammatory processes. According to the method of Winter [Proc. Soc. Exp. Biol. Med. 111, 544 (1962)] carrageenin edema is induced and evaluated on male Wistar rats fasted for 16 hours body weight 160-180 g. Percental inhibition is calculated from the average edema values of the groups treated with the test compound on the one hand and with carrier carboxy methyl cellulose, CMC; control on the other. ED50 values are determined by means of regression analysis of the inhibition values. The test compounds are administered through a stomach canule in the form of a 1% carboxy methyl cellulose (CMC) suspension, one hour before introducing the carrageenin injection.

[4] = adjuvant induced arthritis in rats, method of Newbold; format: in vivo, male Wistar rats; conditions: Rattus norvegicus, po, 504 h, read-out: Percental inhibition of the growth of paw volume, on the 21st day; for inhibition in vivo at 25 mg/kg: 25 mg/kg p.o. daily for two weeks
Experimental: According to the method of Newbold 0.1 ml of Freund complet adjuvant (Difco Lab. Mich. […] The volume of the hind paws is measured before and 21 days after the administration of the adjuvant with the aid of a mercury plethysmometer. […] In Table II the "percental inhibition of the growth of paw volume" relates to the value determined on the 21st day. […] The tests show furthermore that the compounds of the present invention are active not only in healing morphological deformations but effect in a desirable and useful manner the functional condition and fitness of the feet, moreover the general physical state and condition of the animals, too.

[5] = ulcerogenic effect (stomach haemorrhage and ulcers); format: in vivo, male Wistar rats; conditions: rat, po, acute test, rats, five hours after treatment, read-out: UD50
Experimental: Five hours after treatment the animals are sacrificed and their stomachs are placed into a 2.5% formaline solution. The number and rate of punctiform haemorrhage and ulcers is evaluated according to the following scale:
1=some punctiform haemorrhage (<10);
2=diffuse haemorrhage or small ulcer (<2 mm);
3=two or more minor small ulcer (<2 mm);
4=one or more large ulcer (>2 mm).

[6] = rats, read-out: Percental inhibition of paw volume
[7] = carrageenin edema, rats, p.o., regression analysis, read-out: ED50
[8] = read-out: Percental inhibition of paw volume

Row | SMILES | change in vivo at 25 mg/kg [2] [%] | change in vivo at 50 mg/kg [2] [%] | change in vivo at 100 mg/kg [2] [%] | inhibition in vivo at 12.5 mg/kg [3, 6] [%] | inhibition in vivo at 25 mg/kg [3, 6] [%] | inhibition in vivo at 50 mg/kg [3, 6] [%] | inhibition in vivo at 100 mg/kg [3, 6] [%] | ED50 [3, 7] [mg/kg] | inhibition in vivo at 25 mg/kg [4] [%] | other results
1 | Cc1cc(-n2cncn2)c2ccc(Cl)c(Cl)c2n1 [Compound 22] | – | – | – | – | – | – | – | – | – | inhibition at 25 µg/mL [1]: 40.8%; inhibition at 50 µg/mL [1]: 67.7%; inhibition at 100 µg/mL [1]: 79.8%; inhibition at 200 µg/mL [1]: 93%; inhibition at 400 µg/mL [1]: 96.9%
2 | Cc1cc(Sc2n[nH]c(C)n2)c2ccc(Cl)c(C)c2n1 [Compound 69] | 13 | 24 | 30 | 27 | 33 | 52 | 86 | 35 | 35.2 | –
3 | COc1ccc2c(c1)c(CC(=O)O)c(C)n2C(=O)c1ccc(Cl)cc1 [Indomethacin, reference compound] | – | – | – | – | – | – | – | – | – | ED50 [3]: 4.1 mg/kg; inhibition in vivo at 1 mg/kg [3, 8]: 28%; inhibition in vivo at 2 mg/kg [3, 8]: 40%; inhibition in vivo at 4 mg/kg [3, 8]: 47%; inhibition in vivo at 8 mg/kg [3, 8]: 64%; inhibition in vivo at 12 mg/kg [3, 8]: 67%; TD50 at 5 h [5]: 6.3 mg/kg
4 | Cc1ccc2nc(Sc3nc[nH]n3)c(C)cc2c1 [Compound 108] | 34 | 46 | 46 | 19 | 45 | 61 | 70 | 38.5 | 35.2 | –
5 | COc1ccc2cc([C@H](C)C(=O)O)ccc2c1 [Naproxen, reference compound] | 31 | 45 | 49 | 33 | 49 | 64 | 71 | 28.7 | 28.4 | change in vivo at 12.5 mg/kg ([2]; 12.5 mg/kg p.o.): 25%; inhibition in vivo at 12.5 mg/kg ([4]; 12.5 mg/kg p.o.): 16.8%
6 | Cc1cc(-n2cncn2)c2cccc(C)c2n1 [Compound 6, 4-(1H-1,2,4-triazole-1-yl)-2,8-dimethyl-quinoline] | – | – | – | – | – | – | – | – | – | inhibition at 25 µg/mL [1]: 49.2%; inhibition at 50 µg/mL [1]: 71.6%; inhibition at 100 µg/mL [1]: 85.1%; inhibition at 200 µg/mL [1]: 89.5%; inhibition at 400 µg/mL [1]: 99.4%
7 | Cc1cc(Sc2n[nH]c(C)n2)c2cccc(C(F)(F)F)c2n1 [Compound 67] | – | – | – | – | – | – | – | – | 32.8 | –
8 | Cc1cc2cccc(C)c2nc1Sc1nc[nH]n1 [Compound 110] | 21 | 34 | 52 | 10 | 42 | 46 | 61 | 51.4 | 32.1 | –
9 | CCCCC1C(=O)N(c2ccccc2)N(c2ccccc2)C1=O [Phenylbutazon, reference compound] | – | – | 29 | – | 21 | 42 | 45 | 101 | – | change in vivo at 150 mg/kg ([2]; 150 mg/kg p.o.): 42%; change in vivo at 200 mg/kg ([2]; 200 mg/kg p.o.): 44%; inhibition in vivo at 200 mg/kg ([3]; 200 mg/kg p.o., rats, read-out: Percental inhibition of paw volume): 66%; inhibition in vivo at 50 mg/kg ([4]; 50 mg/kg p.o.): 18.5%
10 | Cc1ccc2cc(C)c(Sc3nc[nH]n3)nc2c1 [Compound 109] | – | – | – | – | – | – | – | – | 36.7 | –
11 | Cc1cc2ccccc2nc1Sc1nc[nH]n1 [Compound 107] | 34 | 41 | 88 | 29 | 40 | 70 | 74 | 30.6 | 17.8 | –

Reference: US5104884A, “Triazolyl quinoline derivatives” (Alkaloida Vegyeszeti Gyar, priority 1985, dated 1992)
